[invAb] = inverted abasic unit; m = 2'-O-methyl; r = 2'-OH (RNA); f = 2'-fluoro
Assays:
GATA3 mRNA [1] = assay: GATA3 mRNA knock-down (Taqman qRT-PCR) after RNAiMax transfection of mouse RAG cells; assay type: cell-based; settings: 10 nM siNA, 24 hrs, average of 2 experiments
Description: RAG (murine; ATCC cat# CCL-142): Cells were cultured at 37° C. in the presence of 5% CO2 and grown in Eagle's Minimum Essential medium with supplemented with 10% of fetal bovine serum, 100 μg/mL of streptomycin, and 100 U/mL penicillin.
(§1) Cells were plated in all wells of a tissue-culture treated, 96-well plate at a final count of 5000 cells/well in 100 μL of the appropriate culture media. The cells were cultured for 24 hours after plating at 37° C. in the presence of 5% CO2.
(§2) After 24 hours, complexes containing siNA and RNAiMax were created as follows: A solution of RNAiMax diluted 33-fold in OPTI-MEM was prepared. In parallel, solutions of the siNAs for testing were prepared to a final concentration of 120 nM in OPTI-MEM. After incubation of RNAiMax/OPTI-MEM solution at room temperature for 5 min, an equal volume of the siNA solution and the RNAiMax solution were added together for each of the siNAs.
(§3) This solution was incubated at room temperature for 20 minutes. After incubation, 20 uL of the solution was added to each of the relevant wells. The final concentration of siNA in each well was 10 nM and the final volume of RNAiMax in each well was 0.3 ul.
(§4) The time of incubation with the RNAiMax-siNA complexes was 24 hours and there was no change in media between transfection and harvesting, unless otherwise indicated.
(§5) RNA was extracted from a 96-well plate using the TaqMan® Gene Expression Cells-to-CT™ Kit (Cat#4399002) with a modified protocol. Briefly, a 60 uL (1 plate) or 110 uL (2 plates) of the Lysis Solution with DNase I was dispensed into each well of the Lysis Buffer Plate (twin.tec full skirt plate). The lysis buffer and stop plates were stored at 4° C. until the cells were washed.
(§6) The plate was spun at 1100 rpm for 5 minutes. The culture medium was aspirated and discarded from the wells of the culture plate. The lysis was performed automatically using a BioMek FX instrument and method. After the Biomek method was completed, the lysis plate was incubated for 2 min. at room temperature. The lysis plate can be stored for 2 hours at 4° C., or at −20° C. or −80° C. for two months.
(§7) Each well of the reverse transcription plate required 10 uL of 2× reverse transcriptase Buffer, 1 uL of 20× reverse transcription enzyme and 2 uL of nuclease-free water. The reverse transcription master mix was prepared by mixing 2× reverse transcription buffer, 20× reverse transcription enzyme mix, and nuclease-free water. 13 uL of the reverse transcription master mix was dispensed into each well of the reverse transcription plate (semi-skirted). A separate reverse transcription plate was prepared for each cell plate. The plate was loaded onto a Biomek NX or Biomek FX Dual-96 and the Biomek method was run. The program is programmed to automatically added 7 uL of lysate from the cell lysis procedure described above into each well of the reverse transcription plate. The plate is sealed and spun on a centrifuge (1000 rpm for 30 seconds) to settle the contents to the bottom of the reverse transcription plate. The plate is placed in a thermocycler at 37° C. for 60 min, 95° C. for 5 min, and 4° C. until the plate is removed from the thermocycler. Upon removal, if not used immediately, the plate was frozen at −20° C.
(§8) A series of probes and primers were used to detect the various mRNA transcripts of the genes of β-Actin (human cell line only), and of GATA3 and GAPDH in mouse and human cell lines. All Taqman probes and primers for the experiments here-in described were supplied as pre-validated sets by Applied Biosystems, Inc. (see Table 2).
(§9) The assays were performed on an ABI 7900 instrument, according to the manufacturer's instructions. A TaqMan Gene Expression Master Mix (provided in the Cells-to-CT™, Applied Biosystems, Cat #4399002) was used. The PCR reactions were carried out at 50° C. for 2 min, 95° C. for 20 min followed by 40 cycles at 95° C. for 15 secs and 60° C. for 1 min. […]

GATA3 mRNA [2] = assay: GATA3 mRNA knock-down (Taqman qRT-PCR) after RNAiMax transfection of human MCF7 cells; screen and IC50 dose response; assay type: cell-based; settings: 10 nM siNA, MCF7 cells, 24 hrs, average of 3 experiments
Description: MCF7 (human; ATCC cat# HTB-22): Cells were cultured at 37° C. in the presence of 5% CO2 and grown in Eagle's Minimum Essential medium with supplemented with fetal bovine serum at a final concentration of 10% and 100 μg/mL of streptomycin and 100 U/mL penicillin.
as §1, §2, §3, §4, §5, §6, §7, §8, §9

| Substance | % KD Mouse (GATA3 mRNA [1]) [%] | % KD Human (GATA3 mRNA [2]) [%] |
| --- | --- | --- |
| 30283-DC: GATA3 siNA duplex, human/mouse site 3067: sense B GucccuGuAAuuGuuGuuu TTB (SEQ 119), antisense AAAcAAcAAuuAcAGGGAcUU (SEQ 120) (sense GUCCCUGUAAUUGUUGUUUTT; antisense AAACAACAAUUACAGGGACUU; sense: DNA at AGT, 2'-fluoro at CU, [invAb] at 5' end, 3' end, backbone not given here; antisense: sugars from the 5' end rrrfmmfmmffmfmmmmmfmm, backbone not given here) | 47 ± 1 | 32 ± 5 |
| 30270-DC: GATA3 siNA duplex, mouse site 1960: sense B ccAAGuGuGcGAAGAGuuc TTB (SEQ 93), antisense GAAcucuucGcAcAcuuGGUU (SEQ 94, row printed as 30269-DC) (sense CCAAGUGUGCGAAGAGUUCTT; antisense GAACUCUUCGCACACUUGGUU; chemistry not fully specified) | 69 ± 4 | −25 ± 24 |
| 30256-DC: GATA3 siNA duplex, site 719: sense B cGGucAAGGcAAccAcGuc TTB (SEQ 65), antisense GACGuGGuuGccuuGAccGUU (SEQ 66) (sense CGGUCAAGGCAACCACGUCTT; antisense GACGUGGUUGCCUUGACCGUU; chemistry not fully specified) | 1 ± 6 | −19 ± 5 |
| 30280-DC: GATA3 siNA duplex, mouse site 1106: sense B ccGGGucGGccAGGcAAGA TTB (SEQ 113), antisense UCUuGccuGGccGAcccGGUU (SEQ 114) (sense CCGGGUCGGCCAGGCAAGATT; antisense UCUUGCCUGGCCGACCCGGUU; sense: DNA at AGT, 2'-fluoro at CU, [invAb] at 5' end, 3' end, backbone not given here; antisense: sugars from the 5' end rrrfmfffmmffmmfffmmmm, backbone not given here) | 1 ± 2 | −16 ± 12 |
| 30267-DC: GATA3 siNA duplex, mouse site 1324: sense B GGGuucGGAuGuAAGucGA TTB (SEQ 87), antisense UCGAcuuAcAuccGAAcccUU (SEQ 88) (sense GGGUUCGGAUGUAAGUCGATT; antisense UCGACUUACAUCCGAACCCUU; chemistry not fully specified) | 40 ± 1 | −13 ± 15 |
| 30262-DC: GATA3 siNA duplex, site 1818: sense B ccGAuGcAcccGccAuccA TTB (SEQ 77), antisense UGGAuGGcGGGuGcAucGGUU (SEQ 78) (sense CCGAUGCACCCGCCAUCCATT; antisense UGGAUGGCGGGUGCAUCGGUU; chemistry not fully specified) | 1 ± 7 | 10 ± 11 |
| 30250-DC: GATA3 siNA duplex, site 727: sense B GcAAccAcGucccGcccuA TTB (SEQ 53), antisense UAGGGcGGGAcGuGGuuGcUU (SEQ 54) (sense GCAACCACGUCCCGCCCUATT; antisense UAGGGCGGGACGUGGUUGCUU; chemistry not fully specified) | −9 ± 8 | 6 ± 9 |
| 30248-DC: GATA3 siNA duplex, site 643: sense B cGGGccucAGccAcuccuA TTB (SEQ 49), antisense UAGGAGuGGcuGAGGcccGUU (SEQ 50) (sense CGGGCCUCAGCCACUCCUATT; antisense UAGGAGUGGCUGAGGCCCGUU; chemistry not fully specified) | 1 ± 5 | 18 ± 4 |
| 30274-DC: GATA3 siNA duplex, mouse site 704: sense B cucAGuAuccGcuGAcGGA TTB (SEQ 101), antisense UCCGucAGcGGAuAcuGAGUU (SEQ 102) (sense CUCAGUAUCCGCUGACGGATT; antisense UCCGUCAGCGGAUACUGAGUU; sense: DNA at AGT, 2'-fluoro at CU, [invAb] at 5' end, 3' end, backbone not given here; antisense: sugars from the 5' end rrrmffmmfmmmfmffmmmmm, backbone not given here) | −2 ± 4 | 0 ± 13 |
| 30266-DC: GATA3 siNA duplex, mouse site 1258: sense B cccuAuGuGcccGAGuAcA TTB (SEQ 85), antisense UGUAcucGGGcAcAuAGGGUU (SEQ 86) (sense CCCUAUGUGCCCGAGUACATT; antisense UGUACUCGGGCACAUAGGGUU; chemistry not fully specified) | 8 ± 5 | −3 ± 5 |
| 30252-DC: GATA3 siNA duplex, site 1084: sense B cccGGcAGGAcGAGAAAGA TTB (SEQ 57), antisense UCUuucucGuccuGccGGGUU (SEQ 58) (sense CCCGGCAGGACGAGAAAGATT; antisense UCUUUCUCGUCCUGCCGGGUU; sense: DNA at AGT, 2'-fluoro at C, [invAb] at 5' end, 3' end, backbone not given here; antisense: sugars from the 5' end rrrfffffmffffmffmmmmm, backbone not given here) | 0 ± 4 | −3 ± 2 |
| 30253-DC: GATA3 siNA duplex, site 644: sense B GGGccucAGccAcuccuAc TTB (SEQ 59), antisense GUAGGAGuGGcuGAGGcccUU (SEQ 60) (sense GGGCCUCAGCCACUCCUACTT; antisense GUAGGAGUGGCUGAGGCCCUU; chemistry not fully specified) | −6 ± 1 | −1 ± 11 |
| 30281-DC: GATA3 siNA duplex, human/mouse site 904: sense B ccuucuccAAGAcGuccAu TTB (SEQ 115), antisense AUGGAcGucuuGGAGAAGGUU (SEQ 116) (sense CCUUCUCCAAGACGUCCAUTT; antisense AUGGACGUCUUGGAGAAGGUU; sense: DNA at AGT, 2'-fluoro at CU, [invAb] at 5' end, 3' end, backbone not given here; antisense: sugars from the 5' end rrrmmfmffffmmmmmmmmmm, backbone not given here) | 13 ± 3 | −14 ± 7 |
| 30245-DC: GATA3 siNA duplex, site 1829: sense B GccAuccAGccuGuccuuu TTB (SEQ 43), antisense AAAGGAcAGGcuGGAuGGcUU (SEQ 44) (sense GCCAUCCAGCCUGUCCUUUTT; antisense AAAGGACAGGCUGGAUGGCUU; chemistry not fully specified) | 20 ± 7 | 24 ± 2 |
| 30251-DC: GATA3 siNA duplex, site 735: sense B GucccGcccuAcuAcGGAA TTB (SEQ 55), antisense UUCcGuAGuAGGGcGGGAcUU (SEQ 56) (sense GUCCCGCCCUACUACGGAATT; antisense UUCCGUAGUAGGGCGGGACUU; sense: DNA at AGT, 2'-fluoro at CU, [invAb] at 5' end, 3' end, backbone not given here; antisense: sugars from the 5' end rrrfmfmmfmmmmfmmmmfmm, backbone not given here) | −30 ± 18 | −127 ± 32 |

Reference: patent US20120029054A1, “RNA Interference Mediated Inhibition of GATA Binding Protein 3 (GATA3) Gene Expression Using Short Intefering Nucleic Acid (siNA)” (Merck Sharp & Dohme Corp., priority 2009, published 2012)
